Values of other authors in patent EP0307115A1, “Phenol esters” (IMPERIAL CHEMICAL INDUSTRIES PLC, priority 1987, dated 1989).

Conditions: dosed orally in man

O=C(NCCNCC(O)COc1ccc(O)cc1)N1CCOCC1 (racemic) [xamoterol, N-(2-[(RS)-2-hydroxy-3-(4-hydroxyphenoxy)-propylamino]ethyl)morpholine-4-carboxamide]
absorbed from the gastrointestinal tract, extent of the administered dose: 9-10%
